According to patent US9416128B2, “Fused heterocyclic compounds as ion channel modulators” (Gilead Sciences, Inc., priority 2013, dated 2016):
Where two headings read alike, the source gives them in different places.

What was measured:
[1] = target: wild-type human cardiac sodium channel, hNaV 1.5 (Late INa) (Homo sapiens, UniProt Q14524); assay: Late INa screening assay (whole cell patch clamp, QPatch, Tefluthrin-induced late current); format: cell-based; conditions: HEK293, % inhibition (percent block of late INa) at 1 uM; HEK293 hNaV1.5; 10 μM Tefluthrin; read-out: Nav1.5 Late INa 1 uM
Sequence of wild-type human cardiac sodium channel, hNaV 1.5 (Late INa) (Q14524 whole entry): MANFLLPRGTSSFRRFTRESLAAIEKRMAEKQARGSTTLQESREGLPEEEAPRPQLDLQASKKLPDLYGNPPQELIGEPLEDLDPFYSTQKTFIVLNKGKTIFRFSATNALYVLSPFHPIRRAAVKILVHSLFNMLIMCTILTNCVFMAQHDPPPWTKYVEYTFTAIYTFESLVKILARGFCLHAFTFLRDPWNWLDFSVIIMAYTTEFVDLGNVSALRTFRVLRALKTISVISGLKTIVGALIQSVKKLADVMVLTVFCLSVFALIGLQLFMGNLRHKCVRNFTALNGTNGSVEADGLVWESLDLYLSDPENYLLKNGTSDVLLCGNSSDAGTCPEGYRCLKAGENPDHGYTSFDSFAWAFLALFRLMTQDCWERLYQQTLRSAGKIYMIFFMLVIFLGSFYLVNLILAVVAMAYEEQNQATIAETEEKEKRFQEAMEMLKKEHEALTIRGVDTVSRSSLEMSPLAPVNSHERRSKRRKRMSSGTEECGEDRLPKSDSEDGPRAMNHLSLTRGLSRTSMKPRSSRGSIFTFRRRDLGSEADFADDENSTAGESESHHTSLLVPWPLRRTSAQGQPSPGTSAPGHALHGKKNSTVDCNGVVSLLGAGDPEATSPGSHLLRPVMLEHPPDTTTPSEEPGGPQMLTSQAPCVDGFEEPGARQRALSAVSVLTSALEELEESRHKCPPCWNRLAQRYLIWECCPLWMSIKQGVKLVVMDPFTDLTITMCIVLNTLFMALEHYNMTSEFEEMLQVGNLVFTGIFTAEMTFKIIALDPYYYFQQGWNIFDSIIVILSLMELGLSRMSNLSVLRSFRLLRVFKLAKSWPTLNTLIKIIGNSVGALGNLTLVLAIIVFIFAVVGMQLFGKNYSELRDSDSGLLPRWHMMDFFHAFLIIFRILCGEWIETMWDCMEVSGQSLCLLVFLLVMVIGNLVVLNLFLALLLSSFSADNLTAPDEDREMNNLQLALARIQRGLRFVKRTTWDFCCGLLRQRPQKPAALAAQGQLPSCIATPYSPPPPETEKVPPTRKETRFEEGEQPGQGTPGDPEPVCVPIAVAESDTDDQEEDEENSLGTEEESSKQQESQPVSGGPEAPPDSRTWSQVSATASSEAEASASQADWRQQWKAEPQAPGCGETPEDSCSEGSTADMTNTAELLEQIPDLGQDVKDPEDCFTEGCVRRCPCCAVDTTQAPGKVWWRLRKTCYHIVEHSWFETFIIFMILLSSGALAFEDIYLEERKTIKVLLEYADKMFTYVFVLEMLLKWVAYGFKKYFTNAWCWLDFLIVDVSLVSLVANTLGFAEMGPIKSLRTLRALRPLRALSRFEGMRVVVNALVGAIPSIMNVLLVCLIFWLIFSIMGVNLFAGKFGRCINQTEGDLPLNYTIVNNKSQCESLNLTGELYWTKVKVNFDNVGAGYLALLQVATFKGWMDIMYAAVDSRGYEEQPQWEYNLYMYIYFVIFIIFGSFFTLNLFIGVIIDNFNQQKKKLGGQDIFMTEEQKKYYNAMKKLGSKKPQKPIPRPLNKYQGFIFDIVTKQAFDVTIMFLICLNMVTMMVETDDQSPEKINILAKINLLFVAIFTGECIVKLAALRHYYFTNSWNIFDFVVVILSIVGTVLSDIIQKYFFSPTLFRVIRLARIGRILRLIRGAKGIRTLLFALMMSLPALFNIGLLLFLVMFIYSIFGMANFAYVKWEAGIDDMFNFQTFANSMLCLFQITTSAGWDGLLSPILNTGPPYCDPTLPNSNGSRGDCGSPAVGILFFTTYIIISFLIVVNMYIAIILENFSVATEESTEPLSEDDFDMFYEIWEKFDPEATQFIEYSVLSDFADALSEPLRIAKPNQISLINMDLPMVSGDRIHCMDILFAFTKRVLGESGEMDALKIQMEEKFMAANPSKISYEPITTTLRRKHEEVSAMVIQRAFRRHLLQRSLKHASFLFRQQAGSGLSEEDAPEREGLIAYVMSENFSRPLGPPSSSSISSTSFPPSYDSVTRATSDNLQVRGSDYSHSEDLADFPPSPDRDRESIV
Protocol: The cardiac late sodium current (Late INa) and peak sodium current (Peak INa) assays are performed on an automated electrophysiology platform, QPatch 16X or QPatch HT (Sophion Bioscience, Copenhagen, Denmark) using the whole cell patch clamp technique to measure currents through the cell membrane. The assay uses an HEK293 (human embryonic kidney) cell line heterologously expressing the wild-type human cardiac sodium channel, hNaV 1.5, purchased from Millipore (Billerica, Mass.). No beta subunits were coexpressed with the Na channel alpha subunit. Cells are maintained with standard tissue culture procedures and stable channel expression is maintained with 400 μg/mL Geneticin in the culture medium. Experiments are carried out at 23-25° C.
For both the Late INa and Peak INa assays, series resistance compensation is set to 100% and series resistance and whole-cell compensation are performed automatically. Currents are digitized at 25 kHz and low-pass filtered at 5 kHz and stored in the Sophion Bioscience Oracle database (Sophion Bioscience, Copenhagen, Denmark). Analysis is performed using QPatch Assay software and data are compiled in Excel 2010 (Microsoft, Seattle, Wash., U.S.A.).
Compound stocks are routinely made by the Gilead Sample Bank in vials to 10 mM in dimethyl sulfoxide (DMSO). In some cases, when compounds are not soluble in DMSO, they are made in 100% ethanol. Stocks are sonicated as necessary. The extracellular solution for screening Late INa is composed of: 140 mM NaCl, 4 mM KCl, 1.8 mM CaCl2, 1 mM MgCl2, 10 mM HEPES and 10 mM Dextrose with pH adjusted to 7.35 using NaOH. The intracellular solution contains: 105 mM CsF, 20 mM CsCl, 10 NaF, 2 mM EGTA, 10 mM HEPES and 10 mM Dextrose with pH adjusted to 7.35 with CsOH. Compounds are diluted in extracellular solution using a MicroLab Nimbus (Hamilton Robotics, Reno, Nev.) to between 0.3 and 3 μM in glass vials and transferred to glass well plates before robotic addition to the cells. The 0 mM Na extracellular solution (0Na-ECF) used at the end of each experiment for the Late INa and Peak INa assays to measure baseline current contains: 140 Choline-Cl; 4 mM KCl, 1.8 mM CaCl2; 1 mM MgCl2; 10 mM HEPES and 10 mM Dextrose with pH was adjusted to 7.35 with CsOH.
For the Late INa assay, sodium channels are activated every 10 seconds (0.1 Hz) by depolarizing the cell membrane to −20 mV for 250 milliseconds (ms) from a holding potential of −120 mV.
Compounds were tested to determine their activity in blocking the late sodium current. Late INa was generated by adding 10 μM Tefluthrin (pyrethroid) to the extracellular solution. For the purposes of the screening, Late INa is defined as the mean current between 240 ms and 265 ms during the voltage step to −20 mV. After establishing the whole cell recording configuration, Late INa activator is added to each well 4 times over a 15 minute period so that the late component of the Na current reaches a stable value. Compounds were then added (typically at 0.3 or 1 μM), in the presence of the Late INa activator, with 3 additions over the course of 5 minutes. Measurements were made at the end of exposure to the third compound addition and values were normalized to the current level when all Na^+ was removed from the extracellular solution after two additions of 0Na-ECF.
Results are reported as percent block of late INa and results were analyzed by incorporating rundown correction for the Late INa.

[2] = target: wild-type human cardiac sodium channel, hNaV 1.5 (Peak INa) (Homo sapiens, UniProt Q14524); assay: Peak INa screening assay (tonic block and use-dependent block); format: cell-based
Sequence of wild-type human cardiac sodium channel, hNaV 1.5 (Peak INa) (Q14524 whole entry): as above
Protocol: The assay uses an HEK293 (human embryonic kidney) cell line heterologously expressing the wild-type human cardiac sodium channel, hNaV 1.5, purchased from Millipore (Billerica, Mass.). No beta subunits were coexpressed with the Na channel alpha subunit. Cells are maintained with standard tissue culture procedures and stable channel expression is maintained with 400 μg/mL Geneticin in the culture medium. […] Currents are digitized at 25 kHz and low-pass filtered at 5 kHz and stored in the Sophion Bioscience Oracle database (Sophion Bioscience, Copenhagen, Denmark). Analysis is performed using QPatch Assay software and data are compiled in Excel 2010 (Microsoft, Seattle, Wash., U.S.A.). Compound stocks are routinely made by the Gilead Sample Bank in vials to 10 mM in dimethyl sulfoxide (DMSO). In some cases, when compounds are not soluble in DMSO, they are made in 100% ethanol. Stocks are sonicated as necessary. The extracellular solution for screening Late INa is composed of: 140 mM NaCl, 4 mM KCl, 1.8 mM CaCl2, 1 mM MgCl2, 10 mM HEPES and 10 mM Dextrose with pH adjusted to 7.35 using NaOH. The intracellular solution contains: 105 mM CsF, 20 mM CsCl, 10 NaF, 2 mM EGTA, 10 mM HEPES and 10 mM Dextrose with pH adjusted to 7.35 with CsOH. Compounds are diluted in extracellular solution using a MicroLab Nimbus (Hamilton Robotics, Reno, Nev.) to between 0.3 and 3 μM in glass vials and transferred to glass well plates before robotic addition to the cells. […] It is contemplated that the compounds of Formula I avoid significant block of peak INa. […] The intracellular solution used for the Peak INa assay is the same as outlined for the Late INa assay (see above). After establishing the whole cell recording configuration, channels were stimulated to open with low frequency (0.1 Hz) for so that the recording can be monitored and the extent to which the recording has stabilized can be assessed. The test compound is then applied at 1 or 3 μM was added 2 times at 60 second intervals. After the second compound addition, a 200 second wait period was imposed to allow for equilibration. Voltage protocols for TB and UDB are were performed in the absence and presence of compound and TB and UDB are calculated with respect to the compound free condition. Both TB and UDB were analyzed by incorporating rundown correction for the peak INa.

[3] = % inhibition, use-dependent block of peak INa at 3 uM, 3 Hz, pulse 50, read-out: Nav1.5 Peak UDB 3 Hz 3 uM
[4] = read-out: Nav1.5 Peak TB 3 uM, % inhibition, tonic block of peak INa at 3 uM, 0.1 Hz, holding -100 mV

Molecule `O=C1Oc2ccc(-c3ccc(C(F)(F)F)cc3)cc2CN1Cc1ccncc1` [Example 2, 3-(pyridin-4-ylmethyl)-6-(4-(trifluoromethyl)phenyl)-3,4-dihydro-2H-benzo[e][1,3]oxazin-2-one] has an inhibition at 1 µM [1] of 41.5%, an inhibition at 3 µM [2, 3] of 16.2% and an inhibition at 3 µM [2, 4] of 18.5%.

`COc1cc(OC(F)(F)F)ccc1-c1ccc2c(c1)CN(Cc1nccc(C)n1)C(=O)O2` [Example 31, 6-(2-methoxy-4-(trifluoromethoxy)phenyl)-3-((4-methylpyrimidin-2-yl)methyl)-3,4-dihydro-2H-benzo[e][1,3]oxazin-2-one] was tested, and the inhibition at 1 µM [1] was 34.4%, the inhibition at 3 µM [2, 3] was < 5% and the inhibition at 3 µM [2, 4] was 12.2%.

`Cc1cc(OC(F)(F)F)ccc1-c1ccc2c(c1)CN(Cc1ccccn1)C(=O)O2` [Example 23, 6-(2-methyl-4-(trifluoromethoxy)phenyl)-3-(pyridin-2-ylmethyl)-3,4-dihydro-2H-benzo[e][1,3]oxazin-2-one] was tested, and the inhibition at 1 µM [1] was 30.5%, the inhibition at 3 µM [2, 3] was < 5% and the inhibition at 3 µM [2, 4] was 19.4%.

`CC1c2cc(-c3ccc(OC(F)(F)F)cc3)ccc2OC(=O)N1Cc1ncccn1` (stereo not shown) [Example 48, 4-methyl-3-(pyrimidin-2-ylmethyl)-6-(4-(trifluoromethoxy)phenyl)-3,4-dihydro-2H-benzo[e][1,3]oxazin-2-one] showed an inhibition at 1 µM [1] of 53.2% and an inhibition at 3 µM [2, 4] of 12.1%.

`O=C1Oc2ccc(-c3ccc(OC(F)(F)F)cc3)cc2CN1Cc1ccccn1` [Example 20, 3-(pyridin-2-ylmethyl)-6-(4-(trifluoromethoxy)phenyl)-3,4-dihydro-2H-benzo[e][1,3]oxazin-2-one] was tested, and the inhibition at 1 µM [1] was 53.7%, the inhibition at 3 µM [2, 3] was 5.1% and the inhibition at 3 µM [2, 4] was 32.8%.

`Cc1ccnc(CN2Cc3cc(-c4ccc(OC(F)(F)F)cc4F)ccc3OC2=O)n1` [Example 32, 6-(2-fluoro-4-(trifluoromethoxy)phenyl)-3-((4-methylpyrimidin-2-yl)methyl)-3,4-dihydro-2H-benzo[e][1,3]oxazin-2-one] was tested, and the inhibition at 1 µM [1] was 43.4%, the inhibition at 3 µM [2, 3] was < 5% and the inhibition at 3 µM [2, 4] was 33.1%.

In the case of `O=C1Oc2ccc(-c3ccc4c(c3)OC(F)(F)O4)cc2CN1Cc1ncccn1` [Example 26, 6-(2,2-difluorobenzo[d][1,3]dioxol-5-yl)-3-(pyrimidin-2-ylmethyl)-3,4-dihydro-2H-benzo[e][1,3]oxazin-2-one], the inhibition at 1 µM [1] is reported as 35.2%, the inhibition at 3 µM [2, 3] is reported as < 5% and the inhibition at 3 µM [2, 4] is reported as 20.7%.

In the case of `COc1cc(C(F)(F)F)ccc1-c1ccc2c(c1)CN(Cc1ncc(C)cn1)C(=O)O2` [Example 42, 6-(2-methoxy-4-(trifluoromethyl)phenyl)-3-((5-methylpyrimidin-2-yl)methyl)-3,4-dihydro-2H-benzo[e][1,3]oxazin-2-one], the inhibition at 1 µM [1] is reported as 42.7%, the inhibition at 3 µM [2, 3] is reported as < 5% and the inhibition at 3 µM [2, 4] is reported as 12.7%.

`COc1cc(OC(F)(F)F)ccc1-c1ccc2c(c1)CN(Cc1ncccn1)C(=O)O2` [Example 1, 6-(2-methoxy-4-(trifluoromethoxy)phenyl)-3-(pyrimidin-2-ylmethyl)-3,4-dihydro-2H-benzo[e][1,3]oxazin-2-one] showed an inhibition at 3 µM [2, 3] of 9.6% and an inhibition at 3 µM [2, 4] of 26.7%.

For `Cc1csc(CN2Cc3cc(-c4ccc(OC(F)(F)F)c(F)c4)ccc3OC2=O)n1` [Example 53, 6-(3-fluoro-4-(trifluoromethoxy)phenyl)-3-((4-methylthiazol-2-yl)methyl)-3,4-dihydro-2H-benzo[e][1,3]oxazin-2-one], the inhibition at 1 µM [1] was 60.3%, the inhibition at 3 µM [2, 3] was < 5% and the inhibition at 3 µM [2, 4] was 19.8%.

With `O=C1Oc2ccc(-c3ccc(Cl)c(F)c3)cc2CN1Cc1ncccn1` [Example 6, 6-(4-chloro-3-fluorophenyl)-3-(pyrimidin-2-ylmethyl)-3,4-dihydro-2H-benzo[e][1,3]oxazin-2-one] the inhibition at 1 µM [1] was 43.3%, the inhibition at 3 µM [2, 3] was < 5% and the inhibition at 3 µM [2, 4] was 19.9%.

With `Cc1csc(CN2Cc3cc(-c4ccc(Cl)c(F)c4)ccc3OC2=O)n1` [Example 59, 6-(4-chloro-3-fluorophenyl)-3-((4-methylthiazol-2-yl)methyl)-3,4-dihydro-2H-benzo[e][1,3]oxazin-2-one] the inhibition at 1 µM [1] was 50.3%, the inhibition at 3 µM [2, 3] was < 5% and the inhibition at 3 µM [2, 4] was 13%.
